Read-outs that look alike come from different tables or passages of the source. Where a SMILES comes first, the peptide text is derived from it. [ ]: non-standard residue; d: D form. The star is where a group is joined. Decanoyl = CCCCCCCCCC(=O)*; Aib = CC(C)(N)C(=O)O
Experiments:
Type in all cases: cell-based
human GLP-2R = molecular target: T1, human GLP-2R (Homo sapiens, UniProt O95838); assay: cAMP assay (HitHunter) in transiently transfected COS-7 cells expressing human GLP-2R; conditions: for Emax: COS-7, normalized to highest concentration of the endogenous ligand, read-out: Efficacy GLP-2R (Emax)
T1 construct: host or cells: COS-7
T1 sequence (O95838 1-553): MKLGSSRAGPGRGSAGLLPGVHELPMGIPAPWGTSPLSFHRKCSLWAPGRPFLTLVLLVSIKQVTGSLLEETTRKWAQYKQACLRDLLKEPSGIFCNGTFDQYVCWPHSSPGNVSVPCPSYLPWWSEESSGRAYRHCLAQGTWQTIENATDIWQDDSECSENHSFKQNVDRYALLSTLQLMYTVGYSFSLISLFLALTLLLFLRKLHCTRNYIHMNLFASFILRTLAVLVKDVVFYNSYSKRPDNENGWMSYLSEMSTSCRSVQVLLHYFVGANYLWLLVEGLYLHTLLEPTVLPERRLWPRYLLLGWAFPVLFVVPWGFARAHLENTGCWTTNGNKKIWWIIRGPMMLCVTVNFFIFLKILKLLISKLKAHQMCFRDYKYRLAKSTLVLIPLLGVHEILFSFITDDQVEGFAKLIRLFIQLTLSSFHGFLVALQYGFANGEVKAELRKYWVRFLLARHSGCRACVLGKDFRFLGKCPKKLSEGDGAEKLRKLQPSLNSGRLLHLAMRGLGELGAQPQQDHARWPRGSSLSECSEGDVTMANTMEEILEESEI
Protocol: (§1) The next day the assay was initiated by washing with HEPES buffered saline (HBS) and followed by an incubation step with assay buffer (HBS added 1 mM isobutyl-1-methylxanthine (IBMX)) for 30 min at 37° C. The ligands were then added and incubated for an additional 30 min at 37° C. After ligand incubation, the HitHunter® CAMP assay (Eurofins DiscoverX, Fremont, […] USA) was carried out according to the manufacturer's instructions. […] The potencies (EC50 values) were determined by nonlinear regression using GraphPad Prism 9 (San Diego, California, USA). Sigmoid curves were fitted logistically. The efficacies (Emax values) were determined by normalization to the highest concentration applied of the endogenous ligand for each receptor.

human GIPR = molecular target: T2, human GIPR (Homo sapiens, UniProt P48546); assay: cAMP assay (HitHunter) in transiently transfected COS-7 cells expressing human GIPR; conditions: for Emax: COS-7, normalized to highest concentration of the endogenous ligand, read-out: Efficacy GIPR (Emax); for EC50: cAMP, COS-7 cells, human GIPR
T2 construct: host or cells: COS-7
T2 sequence (P48546 22-466): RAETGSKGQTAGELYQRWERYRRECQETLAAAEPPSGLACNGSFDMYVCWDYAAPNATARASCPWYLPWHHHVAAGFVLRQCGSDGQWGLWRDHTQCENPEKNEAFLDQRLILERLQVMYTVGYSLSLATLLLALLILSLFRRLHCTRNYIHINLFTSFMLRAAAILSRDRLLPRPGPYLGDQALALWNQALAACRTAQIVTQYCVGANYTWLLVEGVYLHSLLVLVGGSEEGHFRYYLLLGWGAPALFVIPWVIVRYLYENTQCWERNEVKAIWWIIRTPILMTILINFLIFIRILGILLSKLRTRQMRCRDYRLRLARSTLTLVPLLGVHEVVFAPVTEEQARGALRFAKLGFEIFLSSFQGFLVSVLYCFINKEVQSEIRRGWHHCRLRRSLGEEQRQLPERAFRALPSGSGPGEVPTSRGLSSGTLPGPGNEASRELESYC
Protocol: as §1

human GLP-1R = molecular target: T3, human GLP-1R (Homo sapiens, UniProt P43220); assay: cAMP assay (HitHunter) in transiently transfected COS-7 cells expressing human GLP-1R; conditions: for Emax: COS-7, normalized to highest concentration of the endogenous ligand, read-out: Efficacy GLP-1R (Emax)
T3 construct: host or cells: COS-7
Protocol: as §1

[1] = cAMP, COS-7 cells, human GLP-1R, read-out: EC50 (nM) GLP-1R

T3 sequence (P43220 24-463): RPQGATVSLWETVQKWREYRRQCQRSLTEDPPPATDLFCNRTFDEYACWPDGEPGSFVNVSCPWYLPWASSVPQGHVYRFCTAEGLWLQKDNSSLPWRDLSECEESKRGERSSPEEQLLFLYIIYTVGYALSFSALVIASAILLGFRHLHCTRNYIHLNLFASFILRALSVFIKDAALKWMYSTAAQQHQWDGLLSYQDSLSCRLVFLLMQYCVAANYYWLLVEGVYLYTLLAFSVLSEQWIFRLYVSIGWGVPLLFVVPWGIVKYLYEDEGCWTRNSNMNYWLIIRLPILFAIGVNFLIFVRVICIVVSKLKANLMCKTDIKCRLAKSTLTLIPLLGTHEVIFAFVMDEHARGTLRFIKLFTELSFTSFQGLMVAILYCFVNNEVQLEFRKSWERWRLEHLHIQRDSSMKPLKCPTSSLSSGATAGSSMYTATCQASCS

Structure (SMILES) | Emax (human GLP-2R) [%] | Emax (human GIPR) [%] | EC50 (human GIPR) [nM] | Emax (human GLP-1R) [%] | EC50 (human GLP-2R; cAMP, COS-7 cells, human GLP-2R, read-out: EC50 (nM) GLP-2R) [nM] | EC50 (human GLP-1R; [1]) [nM] | EC50 (human GLP-2R) [nM] | EC50 (human GLP-1R) [nM]
CCCCCCCCCC(=O)NCCCC[C@H](NC(=O)[C@@H](NC(=O)[C@@H](NC(=O)[C@H](CCCCN)NC(=O)[C@@H](NC(=O)[C@H](CCC(N)=O)NC(=O)[C@@H](NC(=O)[C@H](CC(C)C)NC(=O)[C@H](Cc1c[nH]c2ccccc12)NC(=O)[C@H](CC(N)=O)NC(=O)[C@@H](NC(=O)[C@H](Cc1ccccc1)NC(=O)[C@H](CC(=O)O)NC(=O)[C@H](CCCNC(=N)N)NC(=O)[C@H](C)NC(=O)[C@H](C)NC(=O)[C@H](CC(C)C)NC(=O)[C@H](CC(N)=O)NC(=O)[C@H](CC(=O)O)NC(=O)[C@H](CC(C)C)NC(=O)[C@@H](NC(=O)[C@@H](NC(=O)[C@H](CO)NC(=O)[C@H](Cc1ccc(O)cc1)NC(=O)[C@H](CC(=O)O)NC(=O)[C@H](CO)NC(=O)[C@@H](NC(=O)[C@H](Cc1ccccc1)NC(=O)[C@@H](NC(=O)CNC(=O)[C@H](CC(=O)O)NC(=O)C(C)(C)NC(=O)[C@@H](N)Cc1ccc(O)cc1)[C@@H](C)O)[C@@H](C)CC)[C@@H](C)O)[C@@H](C)CC)[C@@H](C)CC)[C@@H](C)CC)[C@@H](C)O)[C@@H](C)CC)[C@@H](C)O)C(N)=O [Compound 16] (H-Y[Aib]DGTFISDYSTILDNLAARDFINWLIQTKITK(Decanoyl)-NH2; N-terminus assumed) | 93 | 99 | 1 | 59 |  |  |  | 
CCCCCCCCCC(=O)NCCCC[C@H](NC(=O)[C@@H](NC(=O)[C@@H](NC(=O)[C@H](CCCCN)NC(=O)[C@@H](NC(=O)[C@H](CCC(N)=O)NC(=O)[C@@H](NC(=O)[C@H](CC(C)C)NC(=O)[C@H](Cc1c[nH]c2ccccc12)NC(=O)[C@H](CC(N)=O)NC(=O)[C@@H](NC(=O)[C@H](Cc1ccccc1)NC(=O)[C@H](CC(=O)O)NC(=O)[C@H](CCCNC(=N)N)NC(=O)[C@H](C)NC(=O)[C@H](C)NC(=O)[C@H](CC(C)C)NC(=O)[C@H](C)NC(=O)[C@H](CC(=O)O)NC(=O)[C@H](CC(C)C)NC(=O)[C@@H](NC(=O)[C@@H](NC(=O)[C@H](CO)NC(=O)[C@H](Cc1ccc(O)cc1)NC(=O)[C@H](CC(=O)O)NC(=O)[C@H](CO)NC(=O)[C@@H](NC(=O)[C@H](Cc1ccccc1)NC(=O)[C@@H](NC(=O)CNC(=O)[C@H](CC(=O)O)NC(=O)C(C)(C)NC(=O)[C@@H](N)Cc1c[nH]cn1)[C@@H](C)O)[C@@H](C)CC)[C@@H](C)O)[C@@H](C)CC)[C@@H](C)CC)[C@@H](C)CC)[C@@H](C)O)[C@@H](C)CC)[C@@H](C)O)C(N)=O [Compound 5] (H-H[Aib]DGTFISDYSTILDALAARDFINWLIQTKITK(Decanoyl)-NH2) | 110 | 111 | 0.158 | 105 | 2 | 1.78 |  | 
CCCCCCCCCC(=O)N[C@@H](CCC(=O)NCCCC[C@H](NC(=O)[C@@H](NC(=O)[C@@H](NC(=O)[C@H](CCCCN)NC(=O)[C@@H](NC(=O)[C@H](CCC(N)=O)NC(=O)[C@@H](NC(=O)[C@H](CC(C)C)NC(=O)[C@H](Cc1c[nH]c2ccccc12)NC(=O)[C@H](CC(N)=O)NC(=O)[C@@H](NC(=O)[C@H](Cc1ccccc1)NC(=O)[C@H](CC(=O)O)NC(=O)[C@H](CCCNC(=N)N)NC(=O)[C@H](C)NC(=O)[C@H](C)NC(=O)[C@H](CC(C)C)NC(=O)[C@H](CC(N)=O)NC(=O)[C@H](CC(=O)O)NC(=O)[C@H](CC(C)C)NC(=O)[C@@H](NC(=O)[C@@H](NC(=O)[C@H](CO)NC(=O)[C@H](Cc1ccc(O)cc1)NC(=O)[C@H](CC(=O)O)NC(=O)[C@H](CO)NC(=O)[C@@H](NC(=O)[C@H](Cc1ccccc1)NC(=O)[C@@H](NC(=O)CNC(=O)[C@H](CC(=O)O)NC(=O)C(C)(C)NC(=O)[C@@H](N)Cc1c[nH]cn1)[C@@H](C)O)[C@@H](C)CC)[C@@H](C)O)[C@@H](C)CC)[C@@H](C)CC)[C@@H](C)CC)[C@@H](C)O)[C@@H](C)CC)[C@@H](C)O)C(N)=O)C(=O)O [Compound 17] | 92 | 97 |  | 107 |  |  |  | 
CCCCCCCCCC(=O)NCCCC[C@H](NC(=O)[C@H](CCCCN)NC(=O)CNC(=O)[C@H](CCCCN)NC(=O)[C@@H](NC(=O)[C@H](CCC(N)=O)NC(=O)[C@@H](NC(=O)[C@H](CC(C)C)NC(=O)[C@H](Cc1c[nH]c2ccccc12)NC(=O)[C@H](CC(N)=O)NC(=O)[C@@H](NC(=O)[C@H](Cc1ccccc1)NC(=O)[C@H](CC(=O)O)NC(=O)[C@H](CCCNC(=N)N)NC(=O)[C@H](C)NC(=O)[C@H](C)NC(=O)[C@H](CC(C)C)NC(=O)[C@H](CC(N)=O)NC(=O)[C@H](CC(=O)O)NC(=O)[C@H](CC(C)C)NC(=O)[C@@H](NC(=O)[C@@H](NC(=O)[C@H](CO)NC(=O)[C@H](Cc1ccc(O)cc1)NC(=O)[C@H](CC(=O)O)NC(=O)[C@H](CO)NC(=O)[C@@H](NC(=O)[C@H](Cc1ccccc1)NC(=O)[C@@H](NC(=O)CNC(=O)[C@H](CC(=O)O)NC(=O)C(C)(C)NC(=O)[C@@H](N)Cc1c[nH]cn1)[C@@H](C)O)[C@@H](C)CC)[C@@H](C)O)[C@@H](C)CC)[C@@H](C)CC)[C@@H](C)CC)[C@@H](C)O)C(N)=O [Compound 14] (H-H[Aib]DGTFISDYSTILDNLAARDFINWLIQTKGKK(Decanoyl)-NH2) | 92 | 91 |  | 96 |  |  |  | 
CCCCCCCCCC(=O)NCCCC[C@H](NC(=O)[C@@H](NC(=O)[C@@H](NC(=O)[C@H](CCCCN)NC(=O)[C@@H](NC(=O)[C@H](CCC(N)=O)NC(=O)[C@@H](NC(=O)[C@H](CC(C)C)NC(=O)[C@H](Cc1c[nH]c2ccccc12)NC(=O)[C@H](CC(N)=O)NC(=O)[C@@H](NC(=O)[C@H](Cc1ccccc1)NC(=O)[C@H](CC(=O)O)NC(=O)[C@H](CCCNC(=N)N)NC(=O)[C@H](C)NC(=O)[C@H](C)NC(=O)[C@H](CC(C)C)NC(=O)[C@H](CC(N)=O)NC(=O)[C@H](CC(=O)O)NC(=O)[C@H](CC(C)C)NC(=O)[C@@H](NC(=O)[C@@H](NC(=O)[C@H](CO)NC(=O)[C@H](Cc1ccc(O)cc1)NC(=O)[C@H](CC(=O)O)NC(=O)[C@H](CO)NC(=O)[C@@H](NC(=O)[C@H](Cc1ccccc1)NC(=O)[C@@H](NC(=O)CNC(=O)[C@H](CC(=O)O)NC(=O)C(C)(C)NC(=O)[C@@H](N)Cc1c[nH]cn1)[C@@H](C)O)[C@@H](C)CC)[C@@H](C)CC)[C@@H](C)CC)[C@@H](C)CC)[C@@H](C)CC)[C@@H](C)O)[C@@H](C)CC)[C@@H](C)O)C(N)=O [Compound 10] (H-H[Aib]DGTFISDYSIILDNLAARDFINWLIQTKITK(Decanoyl)-NH2) | 103 | 127 |  | 99 |  |  | 11.2 | 3.98
CCCCCCCCCC(=O)NCCCC[C@H](NC(=O)[C@@H](NC(=O)[C@@H](NC(=O)[C@H](CCCCN)NC(=O)[C@@H](NC(=O)[C@H](CCC(N)=O)NC(=O)[C@@H](NC(=O)[C@H](CC(C)C)NC(=O)[C@H](Cc1c[nH]c2ccccc12)NC(=O)[C@H](CC(N)=O)NC(=O)[C@@H](NC(=O)[C@H](Cc1ccccc1)NC(=O)[C@H](CC(=O)O)NC(=O)[C@H](CCCNC(=N)N)NC(=O)[C@H](C)NC(=O)[C@H](C)NC(=O)[C@H](CC(C)C)NC(=O)[C@H](CC(N)=O)NC(=O)[C@H](CC(=O)O)NC(=O)[C@H](CC(C)C)NC(=O)[C@@H](NC(=O)[C@@H](NC(=O)[C@H](C)NC(=O)[C@H](Cc1ccc(O)cc1)NC(=O)[C@H](CC(=O)O)NC(=O)[C@H](CO)NC(=O)[C@@H](NC(=O)[C@H](Cc1ccccc1)NC(=O)[C@@H](NC(=O)CNC(=O)[C@H](CC(=O)O)NC(=O)C(C)(C)NC(=O)[C@@H](N)Cc1c[nH]cn1)[C@@H](C)O)[C@@H](C)CC)[C@@H](C)O)[C@@H](C)CC)[C@@H](C)CC)[C@@H](C)CC)[C@@H](C)O)[C@@H](C)CC)[C@@H](C)O)C(=O)O [Compound 3] (H-H[Aib]DGTFISDYATILDNLAARDFINWLIQTKITK(Decanoyl)-OH; N-terminus assumed) | 101 | 80 | 0.631 | 94 |  | 1.78 |  | 

From patent US20250304644A1, “PEPTIDES TRIPLE AGONISTS OF GIP, GLP-1 AND GLP-2” (BAINAN BIOTECH APS, priority 2021, published 2025)
